Legend:
[1] = tested on: CEM cells; test: Cytotoxicity in uninfected CEM cells (trypan blue staining); conditions: at concentrations not exceeding 10 mcg/ml
Experimental: (§1) Human T cell-derived, T4 antigen-positive CEM cells (provided by the Institut Pasteur, France) were used as host cells of HIV. Cell culture was carried out in a carbon dioxide-containing atmosphere in an incubator maintained at 37°C according to a conventional method [cf. […] The culture supernatant (5×10⁶ TCID₅₀/ml) obtained by subjecting CEM cells to HIV (LAV 1) infection and stored at -70°C was used as the HIV source.
The cell culture medium (10 ml) placed in a plastic culture flask (25 cm²) was inoculated with CEM cells to a cell density of 2.5×10⁵ cells/ml and incubation was performed for 3 days. Then, the culture was transferred to a 15-ml plastic centrifuge tube and centrifuged at 1,000 revolutions per minute for 5 minutes for medium removal. A fresh portion of the medium was added to the cells, the cell density being adjusted to 5.0×10⁵ cells/ml. The following mixture (1.0 ml) containing the cell suspension prepared in the above manner was incubated in a 24-well plastic culture plate for 4 days:
The cells in each well were then suspended uniformly in the medium by pipetting and a 0.5-ml portion of the suspension was separated.
A fresh 2-ml portion of the test substance-free medium was added to the remaining cell suspension (0.5 ml) and, after a further 3-day incubation, a cell suspension was produced in the same manner and a 0.5-ml portion thereof was removed.
The cell suspensions collected in the above manner were subjected to viable cell count and viable cell percentage determinations by trypan blue staining.

[2] = tested on: HIV (LAV 1); test: microbe, parasite or virus in culture; conditions: for Viable cell count / Viral antigen-positive cell percentage: 4-day addition
Experimental: as §1
The medium for cell culture (10 ml) placed in a plastic culture flask (25 cm²) was inoculated with CEM cells at a cell density of 2.5×10⁵ cells/ml. After 3 days of incubation, the culture was transferred to a 15-ml centrifuge tube and subjected to centrifugation at 1,000 revolutions per minute for 5 minutes for sedimentation of cells and removal of the culture medium.
The stock viral suspension was added to the host cells thus prepared to an MOI of 0.05 and the mixture was maintained at 37°C for 90 minutes with stirring at 30-minute intervals for viral adsorption. The medium was added to HIV-infected cells to a cell density of 5.0×10⁵ cells/ml to give an HIV-infected cell suspension.
A mixture (1.0 ml) of the three constituents mentioned below was added to each well of a 24-well plastic culture plate and the test substance final concentration was adjusted to 10 mcg/ml, 5 mcg/ml, 2.5 mcg/ml or 1 mcg/ml. The "no addition" wells (0 mcg/ml) served as controls.
After 4 days of incubation following viral infection, the cells in each well on the 24-well culture plate were suspended uniformly by pipetting and a 0.5-ml portion of the suspension was separated. A 2.0-ml portion of test substance-free fresh medium was added to the remaining 0.5-ml portion of the cell suspension, followed by incubation.
Seven days after viral infection, pipetting was performed to give a uniform cell suspension in each well and a 0.5-ml portion of the suspension was separated.
Incubation was continued and, 10 days after viral infection, a uniform cell suspension was produced in the same manner in each well and a 1.5-ml portion thereof was separated. A fresh 2.0-ml portion of the medium free of (or containing) the test substance was added to the well, followed by further incubation.
Fifteen days after viral infection, the cells in each well were suspended uniformly in the same manner in the medium and a 2.0-ml portion of the suspension was separated. A fresh 2.0-ml portion of the medium free of (or containing) the test substance was added to the remaining 0.5 ml of the cell suspension and incubation was continued.
Medium exchange was performed in the same manner 20 days and 25 days after viral infection.
The cell suspensions collected 4 days, 7 days, 10 days, 20 days and 30 days after viral infection were tested for viable cell count and viable cell percentage by trypan blue staining. At the same time, viral antigen-positive cell percentage determination was carried out by immunofluorescence using an anti-HIV antiserum isolated from a healthy carrier of HIV.
The numerical values given each is the mean for the respective two wells on the culture plate. The viable cell count is the total cell count minus the count of dead cells stained with trypan blue. The viable cell percentage is the percentage of viable cells among all the cells including dead cells. The viral antigen-positive cell percentage is the percentage of cells indicating antigen expression as found among all the cells including dead cells.

[3] = in vivo; conditions: mouse, po
[4] = Human immunodeficiency virus 1, CCRF-CEM, 96 h, read-out: Viable cell percentage

With `Cl.O.O=C(O)c1cn(C2CC2)c2cc(N3CCNCC3)c(F)cc2c1=O` [CPFX, 1-cyclopropyl-6-fluoro-1,4-dihydro-4-oxo-7-(1-piperazinyl)-3-quinoline carboxylic acid hydrochloride hydrate] the cytotoxicity [1] was “no cytotoxicity”, the Viable cell count ([2]; 1 mcg/ml, after 4 days) was 220 × 10⁴ cells/ml and the “Viral antigen-positive cell percentage” value ([2]; 1 mcg/ml, after 4 days) was 83%. For the same molecule, the Viable cell count ([2]; 1 mcg/ml, after 7 days) was 86 × 10⁴ cells/ml, the “Viral antigen-positive cell percentage” value ([2]; 1 mcg/ml, after 7 days) was 62% and the Viable cell count ([2]; 1 mcg/ml, after 10 days) was 52 × 10⁴ cells/ml. The “Viral antigen-positive cell percentage” value ([2]; 1 mcg/ml, after 10 days) was 37%, the Viable cell count ([2]; 1 mcg/ml, after 20 days) was 8 × 10⁴ cells/ml and the “Viral antigen-positive cell percentage” value ([2]; 1 mcg/ml, after 20 days) was 33%. The Viable cell count ([2]; 1 mcg/ml, after 30 days) was 33 × 10⁴ cells/ml, the Viable cell count ([2]; 2.5 mcg/ml, after 4 days) was 200 × 10⁴ cells/ml and the “Viral antigen-positive cell percentage” value ([2]; 2.5 mcg/ml, after 4 days) was 87%. The Viable cell count ([2]; 2.5 mcg/ml, after 7 days) was 98 × 10⁴ cells/ml, the “Viral antigen-positive cell percentage” value ([2]; 2.5 mcg/ml, after 7 days) was 60% and the Viable cell count ([2]; 2.5 mcg/ml, after 10 days) was 320 × 10⁴ cells/ml. The “Viral antigen-positive cell percentage” value ([2]; 2.5 mcg/ml, after 10 days) was 31%, the Viable cell count ([2]; 2.5 mcg/ml, after 20 days) was 220 × 10⁴ cells/ml and the “Viral antigen-positive cell percentage” value ([2]; 2.5 mcg/ml, after 20 days) was 3%. For the same molecule, the Viable cell count ([2]; 2.5 mcg/ml, after 30 days) was 360 × 10⁴ cells/ml, the “Viral antigen-positive cell percentage” value ([2]; 2.5 mcg/ml, after 30 days) was “≦1%” and the Viable cell count ([2]; 5 mcg/ml, after 4 days) was 220 × 10⁴ cells/ml. For the same molecule, the “Viral antigen-positive cell percentage” value ([2]; 5 mcg/ml, after 4 days) was 92%, the Viable cell count ([2]; 5 mcg/ml, after 7 days) was 76 × 10⁴ cells/ml and the “Viral antigen-positive cell percentage” value ([2]; 5 mcg/ml, after 7 days) was 67%. The Viable cell count ([2]; 5 mcg/ml, after 10 days) was 310 × 10⁴ cells/ml, the “Viral antigen-positive cell percentage” value ([2]; 5 mcg/ml, after 10 days) was 29% and the Viable cell count ([2]; 5 mcg/ml, after 20 days) was 280 × 10⁴ cells/ml. The “Viral antigen-positive cell percentage” value ([2]; 5 mcg/ml, after 20 days) was 4%, the Viable cell count ([2]; 5 mcg/ml, after 30 days) was 320 × 10⁴ cells/ml and the “Viral antigen-positive cell percentage” value ([2]; 5 mcg/ml, after 30 days) was “≦1%”. The Viable cell count ([2]; 10 mcg/ml, after 4 days) was 180 × 10⁴ cells/ml, the “Viral antigen-positive cell percentage” value ([2]; 10 mcg/ml, after 4 days) was 88% and the Viable cell count ([2]; 10 mcg/ml, after 7 days) was 65 × 10⁴ cells/ml. The “Viral antigen-positive cell percentage” value ([2]; 10 mcg/ml, after 7 days) was 57%, the Viable cell count ([2]; 10 mcg/ml, after 10 days) was 250 × 10⁴ cells/ml and the “Viral antigen-positive cell percentage” value ([2]; 10 mcg/ml, after 10 days) was 27%. The Viable cell count ([2]; 10 mcg/ml, after 20 days) was 300 × 10⁴ cells/ml, the “Viral antigen-positive cell percentage” value ([2]; 10 mcg/ml, after 20 days) was 10% and the Viable cell count ([2]; 10 mcg/ml, after 30 days) was 330 × 10⁴ cells/ml. The “Viral antigen-positive cell percentage” value ([2]; 10 mcg/ml, after 30 days) was “≦1%”.

In the case of `CCn1cc(C(=O)O)c(=O)c2cc(F)c(N3CCNCC3)nc21` [ENX, 1-ethyl-6-fluoro-1,4-dihydro-4-oxo-7-(1-piperazinyl)-1,8-naphthyridine-3-carboxylic acid sesqui-hydrate], the cytotoxicity [1] is reported as “no cytotoxicity”, the LD50 [3] is reported as at least 4000 mg/kg and the Viable cell count ([2]; 1 mcg/ml, after 4 days) is reported as 220 × 10⁴ cells/ml. For the same molecule, the “Viral antigen-positive cell percentage” value ([2]; 1 mcg/ml, after 4 days) was 88%, the Viable cell count ([2]; 1 mcg/ml, after 7 days) was 64 × 10⁴ cells/ml and the “Viral antigen-positive cell percentage” value ([2]; 1 mcg/ml, after 7 days) was 70%. The Viable cell count ([2]; 1 mcg/ml, after 10 days) was 29 × 10⁴ cells/ml, the Viable cell count ([2]; 1 mcg/ml, after 20 days) was 7 × 10⁴ cells/ml and the Viable cell count ([2]; 1 mcg/ml, after 30 days) was 0 × 10⁴ cells/ml. The Viable cell count ([2]; 2.5 mcg/ml, after 4 days) was 240 × 10⁴ cells/ml, the “Viral antigen-positive cell percentage” value ([2]; 2.5 mcg/ml, after 4 days) was 90% and the Viable cell count ([2]; 2.5 mcg/ml, after 7 days) was 67 × 10⁴ cells/ml. The “Viral antigen-positive cell percentage” value ([2]; 2.5 mcg/ml, after 7 days) was 65%, the Viable cell count ([2]; 2.5 mcg/ml, after 10 days) was 30 × 10⁴ cells/ml and the Viable cell count ([2]; 2.5 mcg/ml, after 20 days) was 1 × 10⁴ cells/ml. For the same molecule, the Viable cell count ([2]; 2.5 mcg/ml, after 30 days) was 2 × 10⁴ cells/ml, the Viable cell count ([2]; 5 mcg/ml, after 4 days) was 210 × 10⁴ cells/ml and the “Viral antigen-positive cell percentage” value ([2]; 5 mcg/ml, after 4 days) was 93%. The Viable cell count ([2]; 5 mcg/ml, after 7 days) was 58 × 10⁴ cells/ml, the “Viral antigen-positive cell percentage” value ([2]; 5 mcg/ml, after 7 days) was 68% and the Viable cell count ([2]; 5 mcg/ml, after 10 days) was 78 × 10⁴ cells/ml. For the same molecule, the Viable cell count ([2]; 5 mcg/ml, after 20 days) was 11 × 10⁴ cells/ml, the Viable cell count ([2]; 5 mcg/ml, after 30 days) was 310 × 10⁴ cells/ml and the “Viral antigen-positive cell percentage” value ([2]; 5 mcg/ml, after 30 days) was “≦1%”. For the same molecule, the Viable cell count ([2]; 10 mcg/ml, after 4 days) was 140 × 10⁴ cells/ml, the “Viral antigen-positive cell percentage” value ([2]; 10 mcg/ml, after 4 days) was 88% and the Viable cell count ([2]; 10 mcg/ml, after 7 days) was 52 × 10⁴ cells/ml. The “Viral antigen-positive cell percentage” value ([2]; 10 mcg/ml, after 7 days) was 68%, the Viable cell count ([2]; 10 mcg/ml, after 10 days) was 150 × 10⁴ cells/ml and the “Viral antigen-positive cell percentage” value ([2]; 10 mcg/ml, after 10 days) was 30%. For the same molecule, the Viable cell count ([2]; 10 mcg/ml, after 20 days) was 178 × 10⁴ cells/ml, the “Viral antigen-positive cell percentage” value ([2]; 10 mcg/ml, after 20 days) was 5% and the Viable cell count ([2]; 10 mcg/ml, after 30 days) was 379 × 10⁴ cells/ml. For the same molecule, the “Viral antigen-positive cell percentage” value ([2]; 10 mcg/ml, after 30 days) was “≦1%”, the viability at 1 µg/mL [2, 4] was 95% and the viability at 2.5 µg/mL [2, 4] was 95%. The viability at 5 µg/mL [2, 4] was 98% and the viability at 10 µg/mL [2, 4] was 97%.

From patent EP0394553A2, “Use of fluorine containing pyridone carboxylic acid derivatives for preparing a medicament for the treatment of HIV infections” (DAIICHI PHARMACEUTICAL CO., LTD., priority 1989, dated 1990)
